Consider 25 compounds from patent US12441754B2, “Galactoside inhibitor of galectins” (GALECTO BIOTECH AB, priority 2019, dated 2025).

One may read the Kd as a measure of binding affinity in units of concentration.

Molecules are shown by their SMILES. Like-named read-outs stand apart in the source and are kept apart here.

The target of experiment [1] is Galectin-1 (Homo sapiens, UniProt P09382). Kind of experiment: fluorescence anisotropy assay, compound as inhibitor of galectin / fluorescein tagged saccharide probe interaction. Type of experiment: binding. An excerpt:
(§1) Anal. Biochem. 334: 36-47, (Sörme et al., 2004) and Monovalent interactions of Galectin-1 By Salomonsson, Emma; Larumbe, Amaia; Tejler, Johan; Tullberg, Erik; Rydberg, Hanna; Sundin, Anders; Khabut, Areej; Frejd, Torbjorn; Lobsanov, Yuri D.; Rini, James M.; et al, From Biochemistry (2010), 49(44), 9518-9532, (Salomonsson et al., 2010).

Experiment [2] deals with Galectin-3 (Homo sapiens, UniProt P17931). Described as above. It counts as binding.
Source text: as §1

Chain of Galectin-1 (P09382 whole entry): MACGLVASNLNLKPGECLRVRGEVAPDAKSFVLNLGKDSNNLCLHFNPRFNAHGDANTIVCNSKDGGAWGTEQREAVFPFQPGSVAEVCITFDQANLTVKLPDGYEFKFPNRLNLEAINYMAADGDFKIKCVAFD
Chain of Galectin-3 (P17931 whole entry): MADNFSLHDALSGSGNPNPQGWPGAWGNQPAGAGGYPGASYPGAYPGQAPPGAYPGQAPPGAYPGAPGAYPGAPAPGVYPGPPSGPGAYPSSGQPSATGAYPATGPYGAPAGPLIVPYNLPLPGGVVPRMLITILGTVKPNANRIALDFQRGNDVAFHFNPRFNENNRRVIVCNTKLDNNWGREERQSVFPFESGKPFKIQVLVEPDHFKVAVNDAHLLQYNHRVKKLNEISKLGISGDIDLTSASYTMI

With `CO[C@@H]1[C@@H](n2cc(-c3csc(N)n3)nn2)[C@@H](O)[C@@H](CO)O[C@@H]1Sc1cc(Cl)cnc1C#N` [Example 17, 5-Chloro-2-cyanopyridin-3-yl 3-[4-(2-aminothiazol-4-yl)-1H-1,2,3-triazol-1-yl]-3-deoxy-2-O-methyl-1-thio-α-D-galactopyranoside], the results for the Kd in experiment [1] and in experiment [2] were 33 nM and 1.9 µM, respectively.

In the case of `C#Cc1cncc(S[C@H]2O[C@H](CO)[C@H](O)[C@H](n3cc(-c4nccs4)nn3)[C@H]2OC)c1` [Example 47, 5-Ethynylpyridin-3-yl 3-deoxy-2-O-methyl-3-[4-(2-thiazolyl)-1H-1,2,3-triazol-1-yl]-1-thio-α-D-galactopyranoside], the Kd in experiment [1] stood at 570 nM; in experiment [2] it was 3.2 µM.

Take `CCO[C@@H]1[C@@H](n2cc(-c3nccs3)nn2)[C@@H](O)[C@@H](CO)O[C@@H]1Sc1cc(Cl)cnc1C#N` [Example 71, 5-Chloro-2-cyanopyridin-3-yl 3-deoxy-2-O-ethyl-3-[4-(2-thiazolyl)-1H-1,2,3-triazol-1-yl]-1-thio-α-D-galactopyranoside]: the Kd in experiment [1] was 120 nM; in experiment [2] it was 3.6 µM.

As for `CO[C@@H]1[C@@H](n2cc(-c3csc(O)n3)nn2)[C@@H](O)[C@@H](CO)O[C@@H]1Sc1ccc2ncsc2c1` [Example 98, 1,3-Benzothiazol-6-yl 3-deoxy-3-[4-(2-hydroxythiazol-4-yl)-1H-1,2,3-triazol-1-yl]-2-O-methyl-1-thio-α-D-galactopyranoside], the values for the Kd in experiment [1] and in experiment [2] were 64 nM and 6.5 µM, respectively.

For the compound `CO[C@@H]1[C@@H](n2cc(-c3nc(Cl)cs3)nn2)[C@@H](O)[C@@H](CO)O[C@@H]1Sc1cnc(C#N)c(Br)c1` [Example 12, 3-Bromo-2-cyanopyridin-5-yl 3-[4-(4-chlorothiazol-2-yl)-1H-1,2,3-triazol-1-yl]-3-deoxy-2-O-methyl-1-thio-α-D-galactopyranoside], the Kd in experiment [1] was found to be 24 nM; in experiment [2] it was 0.27 µM.

As for `N#Cc1ccc(S[C@H]2O[C@H](CO)[C@H](O)[C@H](n3cc(-c4nc(Cl)cs4)nn3)[C@H]2O)cc1Cl` [Example 52, 3-Chloro-4-cyanophenyl 3-[4-(4-chlorothiazol-2-yl)-1H-1,2,3-triazol-1-yl]-3-deoxy-1-thio-α-D-galactopyranoside], the Kd stood at 170 nM in experiment [1] and 0.41 µM in experiment [2].

In the case of `CO[C@@H]1[C@@H](n2cc(-c3csc(O)n3)nn2)[C@@H](O)[C@@H](CO)O[C@@H]1Sc1cncc(C#N)c1` [Example 83, 5-Cyanopyridin-3-yl 3-deoxy-3-[4-(2-hydroxythiazol-4-yl)-1H-1,2,3-triazol-1-yl]-2-O-methyl-1-thio-α-D-galactopyranoside], the equilibrium dissociation constant (Kd) in experiment [1] is 150 nM; in experiment [2], 5.7 µM.

`CNC(=O)c1ccc(Br)cc1S[C@H]1OC(CO)[C@H](O)C(n2cc(-c3nccs3)nn2)C1OC` (stereo partly drawn) [Example 61, 5-Bromo-2-(N-methyl-carbonyl)phenyl 3-deoxy-2-O-methyl-3-[4-(2-thiazolyl)-1H-1,2,3-triazol-1-yl]-1-thio-α-D-galactopyranoside]: the Kd in experiment [1] amounted to 80 nM; in experiment [2], 3 µM.

As for `CO[C@@H]1[C@@H](n2cc(-c3csc(N)n3)nn2)[C@@H](O)[C@@H](CO)O[C@@H]1Sc1ccc(C(F)(F)F)c(Cl)c1` [Example 30, 3-Chloro-4-(trifluoromethyl)phenyl 3-[4-(2-aminothiazol-4-yl)-1H-1,2,3-triazol-1-yl]-3-deoxy-2-O-methyl-1-thio-α-D-galactopyranoside], the values for the Kd in experiment [1] and in experiment [2] were 120 nM and 2.5 µM, respectively.

With `CO[C@@H]1[C@@H](n2cc(-c3csc(N)n3)nn2)[C@@H](O)[C@@H](CO)O[C@@H]1Sc1cccc(Cl)c1` [Example 31, 3-Chlorophenyl 3-[4-(2-aminothiazol-4-yl)-1H-1,2,3-triazol-1-yl]-3-deoxy-2-O-methyl-1-thio-α-D-galactopyranoside], the dissociation constant Kd came out at 200 nM in experiment [1] and 5.6 µM in experiment [2].

For `C#Cc1cnc(C(=O)N(C)C)c(S[C@H]2O[C@H](CO)[C@H](O)[C@H](n3cc(-c4nc(Cl)cs4)nn3)[C@H]2OC)c1` [Example 91, 5-Ethynyl-2-(N,N-dimethylcarbamoyl)pyridin-3-yl 3-[4-(4-chlorothiazol-2-yl)-1H-1,2,3-triazol-1-yl]-3-deoxy-2-O-methyl-1-thio-α-D-galactopyranoside], the values for the Kd in experiment [1] and in experiment [2] were 24 nM and 0.051 µM, respectively.

As to `CO[C@@H]1[C@@H](n2cc(-c3nc(C)c(Cl)s3)nn2)[C@@H](O)[C@@H](CO)O[C@@H]1Sc1cc(Br)ccc1C#N` [Example 65, 5-Bromo-2-cyanophenyl 3-[4-(5-chloro-4-methylthiazol-2-yl)-1H-1,2,3-triazol-1-yl]-3-deoxy-2-O-methyl-1-thio-α-D-galactopyranoside], the Kd in experiment [1] came to 460 nM; in experiment [2] it was 0.24 µM.

In the case of `CO[C@@H]1[C@@H](n2cc(-c3csc(N)n3)nn2)[C@@H](O)[C@@H](CO)O[C@@H]1Sc1cc(Cl)cnc1C1=CCNCC1` [Example 24, 5-Chloro-2-(1,2,3,6-tetrahydropyridin-4-yl)pyridin-3-yl 3-[4-(2-aminothiazol-4-yl)-1H-1,2,3-triazol-1-yl]-3-deoxy-2-O-methyl-1-thio-α-D-galactopyranoside], the figures for the Kd in experiment [1] and in experiment [2] were 150 nM and 3.3 µM, respectively.

Turning to `C#Cc1cnc(C#N)c(S[C@H]2O[C@H](CO)[C@H](O)[C@H](n3cc(-c4csc(N)n4)nn3)[C@H]2OC)c1` [Example 85, 2-Cyano-5-ethynylpyridin-3-yl 3-[4-(2-aminothiazol-4-yl)-1H-1,2,3-triazol-1-yl]-3-deoxy-2-O-methyl-1-thio-α-D-galactopyranoside], the Kd in experiment [1] came to 110 nM; in experiment [2], 7.7 µM.

Regarding `OC[C@H]1O[C@H](Sc2cc(Cl)c(F)c(Cl)c2)C[C@@H](n2cc(-c3csc(O)n3)nn2)[C@H]1O` [Example 41, 3,5-Dichloro-4-fluorophenyl 2,3-dideoxy-3-[4-(2-hydroxythiazol-4-yl)-1H-1,2,3-triazol-1-yl]-1-thio-α-D-galactopyranoside], the equilibrium dissociation constant (Kd) in experiment [1] came out at 130 nM; in experiment [2], 9.3 µM.

Consider `CCOC1C(n2cc(-c3csc(N)n3)nn2)[C@@H](O)C(CO)O[C@@H]1Sc1ccc(C#N)c(Cl)c1` (some centres unmarked) [Example 88], for which the results for the Kd in experiment [1] and in experiment [2] were 130 nM and 7.7 µM, respectively.

For `CO[C@@H]1[C@@H](n2cc(-c3csc(N)n3)nn2)[C@@H](O)[C@@H](CO)O[C@@H]1Sc1ccc2ncsc2c1` [Example 99, 1,3-Benzothiazol-6-yl 3-[4-(2-aminothiazol-4-yl)-1H-1,2,3-triazol-1-yl]-3-deoxy-2-O-methyl-1-thio-α-D-galactopyranoside], the dissociation constant (Kd) stood at 180 nM in experiment [1] and 7.5 µM in experiment [2].

As to `N#Cc1ncc(Cl)cc1S[C@H]1O[C@H](CO)[C@H](O)[C@H](n2cc(-c3csc(N)n3)nn2)[C@H]1OCc1cc(F)c(O)c(F)c1` [Example 25, 5-Chloro-2-cyanopyridin-3-yl 3-[4-(2-aminothiazol-4-yl)-1H-1,2,3-triazol-1-yl]-3-deoxy-2-O-(3,5-difluoro-4-hydroxybenzyl)-1-thio-α-D-galactopyranoside], the dissociation constant Kd in experiment [1] stood at 24 nM; in experiment [2] it was 0.74 µM.

With `CO[C@@H]1[C@@H](n2cc(-c3nc(Cl)cs3)nn2)[C@@H](O)[C@@H](CO)O[C@@H]1Sc1cc(Cl)cnc1-c1ccccn1` [Example 76, 5-Chloro-2-(pyridin-2-yl)-pyridin-3-yl 3-[4-(4-chlorothiazol-2-yl)-1H-1,2,3-triazol-1-yl]-3-deoxy-2-O-methyl-1-thio-α-D-galactopyranoside], the Kd in experiment [1] is 10 nM; in experiment [2], 0.15 µM.

With `CCO[C@@H]1[C@@H](n2cc(-c3csc(N)n3)nn2)[C@@H](O)[C@@H](CO)O[C@@H]1Sc1cc(Cl)cnc1C` [Example 20, 5-Chloro-2-methylpyridin-3-yl 3-[4-(2-aminothiazol-4-yl)-1H-1,2,3-triazol-1-yl]-3-deoxy-2-O-ethyl-1-thio-α-D-galactopyranoside], the figures for the Kd in experiment [1] and in experiment [2] were 67 nM and 6.2 µM, respectively.

Regarding `Nc1nc(-c2cn([C@@H]3[C@@H](O)[C@@H](Sc4cc(Cl)cnc4-c4ncc[nH]4)O[C@H](CO)[C@@H]3O)nn2)cs1` [Example 74, 5-Chloro-2-(1H-imidazol-2-yl)pyridin-3-yl 3-[4-(2-aminothiazol-4-yl)-1H-1,2,3-triazol-1-yl]-3-deoxy-1-thio-α-D-galactopyranoside], the Kd in experiment [1] is 360 nM; in experiment [2], 11.3 µM.

With `COC1C(n2cc(-c3csc(N)n3)nn2)[C@@H](O)C(CO)O[C@@H]1Sc1ccc(Cl)c(Cl)c1` (stereo partly drawn) [Example 28, 3,4-Dichlorphenyl 3-[4-(2-aminothiazol-4-yl)-1H-1,2,3-triazol-1-yl]-3-deoxy-2-O-methyl-1-thio-α-D-galactopyranoside], the values for the equilibrium dissociation constant (Kd) in experiment [1] (read-out: Galectin-1 Kd) and in experiment [2] were 63 nM and 2.4 µM, respectively.

As for `CO[C@@H]1[C@@H](n2cc(-c3nc(Cl)cs3)nn2)[C@@H](O)[C@@H](CO)O[C@@H]1Sc1cc(Br)ccc1C#N` [Example 57, 5-Bromo-2-cyanophenyl 3-[4-(4-chlorothiazol-2-yl)-1H-1,2,3-triazol-1-yl]-3-deoxy-2-O-methyl-1-thio-α-D-galactopyranoside], the equilibrium dissociation constant (Kd) is 21 nM in experiment [1] and 0.14 µM in experiment [2].

With `CCO[C@@H]1[C@@H](n2cc(-c3csc(N)n3)nn2)[C@@H](O)[C@@H](CO)O[C@@H]1Sc1cc(Cl)cnc1C#N` [Example 72, 5-Chloro-2-cyanopyridin-3-yl 3-[4-(2-aminothiazol-4-yl)-1H-1,2,3-triazol-1-yl]-3-deoxy-2-O-ethyl-1-thio-α-D-galactopyranoside], the dissociation constant (Kd) was 440 nM in experiment [1] and 3 µM in experiment [2].

Take `CO[C@@H]1[C@@H](n2cc(-c3nc(Cl)cs3)nn2)[C@@H](O)[C@@H](CO)O[C@@H]1Sc1cncc(Cl)c1` [Example 53, 5-Chloropyridin-3-yl 3-[4-(4-chlorothiazol-2-yl)-1H-1,2,3-triazol-1-yl]-3-deoxy-2-O-methyl-1-thio-α-D-galactopyranoside]: the Kd came to 54 nM in experiment [1] and 0.34 µM in experiment [2].
